In ChEMBL document CHEMBL1201861, “Genomics of Drug Sensitity in Cancer screening data, Wellcome Trust Sanger Institute”:

What follows are molecules tested on KE-37 (assay: cells). Settings: Homo sapiens, KE-37.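 Note: growth inhibition of KE-37 cells, read out with a cell viability assay.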
Assay type: functional, cell-based, Homo sapiens
Description: SANGER: Inhibition of human KE-37 cell growth in a cell viability assay.

Structure (SMILES) | IC50 [µM]
COc1cc2ncn(-c3cc(OCc4ccccc4S(C)(=O)=O)c(C#N)s3)c2cc1OC [GSK-319347A] | > 5

Each molecule was assayed on TK-10 (assay: cells). Settings: Homo sapiens, TK-10.
Assay type: functional, cell-based, Homo sapiens
Description: SANGER: Inhibition of human TK10 cell growth in a cell viability assay.

Structure (SMILES) | IC50 [µM]
COc1cc2ncn(-c3cc(OCc4ccccc4S(C)(=O)=O)c(C#N)s3)c2cc1OC [GSK-319347A] | > 5

What follows are molecules tested on HL-60 (assay: cells). Settings: Homo sapiens, HL-60.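 Note: growth inhibition of human HL-60 cells, read out with a cell viability assay.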
Assay type: functional, cell-based, Homo sapiens
Description: SANGER: Inhibition of human HL-60 cell growth in a cell viability assay.

Structure (SMILES) | IC50 [µM]
COc1cc2ncn(-c3cc(OCc4ccccc4S(C)(=O)=O)c(C#N)s3)c2cc1OC [GSK-319347A] | > 5

What follows are molecules tested on NCI-H1838 (assay: cells). Settings: Homo sapiens, NCI-H1838.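 Note: growth inhibition of NCI-H1838 cells, determined with a cell viability readout.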
Assay type: functional, cell-based, Homo sapiens
Description: SANGER: Inhibition of human NCI-H1838 cell growth in a cell viability assay.

Structure (SMILES) | IC50 [µM]
COc1cc2ncn(-c3cc(OCc4ccccc4S(C)(=O)=O)c(C#N)s3)c2cc1OC [GSK-319347A] | > 5

What follows are molecules tested on KURAMOCHI (assay: cells). Settings: Homo sapiens, KURAMOCHI.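 Note: growth inhibition of KURAMOCHI cells, read out with a cell viability assay.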
Assay type: functional, cell-based, Homo sapiens
Description: SANGER: Inhibition of human KURAMOCHI cell growth in a cell viability assay.

Structure (SMILES) | IC50 [µM]
COc1cc2ncn(-c3cc(OCc4ccccc4S(C)(=O)=O)c(C#N)s3)c2cc1OC [GSK-319347A] | > 5

Each molecule was assayed on IST-MES1 (assay: cells). Settings: Homo sapiens, IST-MES1.
Assay type: functional, cell-based, Homo sapiens
Description: SANGER: Inhibition of human IST-MES1 cell growth in a cell viability assay.

Structure (SMILES) | IC50 [µM]
COc1cc2ncn(-c3cc(OCc4ccccc4S(C)(=O)=O)c(C#N)s3)c2cc1OC [GSK-319347A] | > 5

Each molecule was assayed on GI-1 (assay: cells). Settings: Homo sapiens, GI-1.
Assay type: functional, cell-based, Homo sapiens
Description: SANGER: Inhibition of human GI-1 cell growth in a cell viability assay.

Structure (SMILES) | IC50 [µM]
COc1cc2ncn(-c3cc(OCc4ccccc4S(C)(=O)=O)c(C#N)s3)c2cc1OC [GSK-319347A] | > 5

Each molecule was assayed on LU-134-A (assay: cells). Settings: Homo sapiens, LU-134-A.
Assay type: functional, cell-based, Homo sapiens
Description: SANGER: Inhibition of human LU-134-A cell growth in a cell viability assay.

Structure (SMILES) | IC50 [µM]
COc1cc2ncn(-c3cc(OCc4ccccc4S(C)(=O)=O)c(C#N)s3)c2cc1OC [GSK-319347A] | > 5

Each molecule was assayed on KG-1 (assay: cells). Settings: Homo sapiens, KG-1.
Assay type: functional, cell-based, Homo sapiens
Description: SANGER: Inhibition of human KG-1 cell growth in a cell viability assay.

Structure (SMILES) | IC50 [µM]
COc1cc2ncn(-c3cc(OCc4ccccc4S(C)(=O)=O)c(C#N)s3)c2cc1OC [GSK-319347A] | > 5

Each molecule was assayed on COLO-320-HSR (assay: cells). Settings: Homo sapiens, COLO-320-HSR.
Assay type: functional, cell-based, Homo sapiens
Description: SANGER: Inhibition of human COLO-320-HSR cell growth in a cell viability assay.

Structure (SMILES) | IC50 [µM]
COc1cc2ncn(-c3cc(OCc4ccccc4S(C)(=O)=O)c(C#N)s3)c2cc1OC [GSK-319347A] | > 5

What follows are molecules tested on MC116 (assay: cells). Settings: Homo sapiens, MC116.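 Note: growth inhibition of MC116 cells, read out with a cell viability assay.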
Assay type: functional, cell-based, Homo sapiens
Description: SANGER: Inhibition of human MC116 cell growth in a cell viability assay.

Structure (SMILES) | IC50 [µM]
COc1cc2ncn(-c3cc(OCc4ccccc4S(C)(=O)=O)c(C#N)s3)c2cc1OC [GSK-319347A] | > 5

These molecules were tested on MEG-01 (assay: cells). Settings: Homo sapiens, MEG-01.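 Note: growth inhibition of MEG-01 cells, read out by a cell viability assay.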
Assay type: functional, cell-based, Homo sapiens
Description: SANGER: Inhibition of human MEG-01 cell growth in a cell viability assay.

Structure (SMILES) | IC50 [µM]
COc1cc2ncn(-c3cc(OCc4ccccc4S(C)(=O)=O)c(C#N)s3)c2cc1OC [GSK-319347A] | > 5

The molecules below were run on COR-L88 (assay: cells). Settings: Homo sapiens, COR-L88.
Assay type: functional, cell-based, Homo sapiens
Description: SANGER: Inhibition of human COR-L88 cell growth in a cell viability assay.

Structure (SMILES) | IC50 [µM]
COc1cc2ncn(-c3cc(OCc4ccccc4S(C)(=O)=O)c(C#N)s3)c2cc1OC [GSK-319347A] | > 5

What follows are molecules tested on LB373-MEL-D (assay: cells). Settings: Homo sapiens, LB373-MEL-D.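 Note: growth inhibition of the cell line, read out in a cell viability assay.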
Assay type: functional, cell-based, Homo sapiens
Description: SANGER: Inhibition of human LB373-MEL-D cell growth in a cell viability assay.

Structure (SMILES) | IC50 [µM]
COc1cc2ncn(-c3cc(OCc4ccccc4S(C)(=O)=O)c(C#N)s3)c2cc1OC [GSK-319347A] | > 5

Each molecule was assayed on KINGS-1 (assay: cells). Settings: Homo sapiens, KINGS-1.
Assay type: functional, cell-based, Homo sapiens
Description: SANGER: Inhibition of human KINGS-1 cell growth in a cell viability assay.

Structure (SMILES) | IC50 [µM]
COc1cc2ncn(-c3cc(OCc4ccccc4S(C)(=O)=O)c(C#N)s3)c2cc1OC [GSK-319347A] | > 5

Each molecule was assayed on Mo (assay: cells). Settings: Homo sapiens, Mo.
Assay type: functional, cell-based, Homo sapiens
Description: SANGER: Inhibition of human Mo-T cell growth in a cell viability assay.

Structure (SMILES) | IC50 [µM]
COc1cc2ncn(-c3cc(OCc4ccccc4S(C)(=O)=O)c(C#N)s3)c2cc1OC [GSK-319347A] | > 5

These molecules were tested on NCI-H1155 (assay: cells). Settings: Homo sapiens, NCI-H1155.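 Note: cell growth inhibition measured by a viability assay.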
Assay type: functional, cell-based, Homo sapiens
Description: SANGER: Inhibition of human NCI-H1155 cell growth in a cell viability assay.

Structure (SMILES) | IC50 [µM]
COc1cc2ncn(-c3cc(OCc4ccccc4S(C)(=O)=O)c(C#N)s3)c2cc1OC [GSK-319347A] | > 5

Each molecule was assayed on SF-539 (assay: cells). Settings: Homo sapiens, SF-539.
Assay type: functional, cell-based, Homo sapiens
Description: SANGER: Inhibition of human SF539 cell growth in a cell viability assay.

Structure (SMILES) | IC50 [µM]
COc1cc2ncn(-c3cc(OCc4ccccc4S(C)(=O)=O)c(C#N)s3)c2cc1OC [GSK-319347A] | > 5

These molecules were tested on MLMA (assay: cells). Settings: Homo sapiens, MLMA.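 Note: growth inhibition of MLMA cells (human), determined through a cell viability readout.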
Assay type: functional, cell-based, Homo sapiens
Description: SANGER: Inhibition of human MLMA cell growth in a cell viability assay.

Structure (SMILES) | IC50 [µM]
COc1cc2ncn(-c3cc(OCc4ccccc4S(C)(=O)=O)c(C#N)s3)c2cc1OC [GSK-319347A] | > 5

The molecules below were run on HD-MY-Z (assay: cells). Settings: Homo sapiens, HD-MY-Z.
Assay type: functional, cell-based, Homo sapiens
Description: SANGER: Inhibition of human HD-MY-Z cell growth in a cell viability assay.

Structure (SMILES) | IC50 [µM]
COc1cc2ncn(-c3cc(OCc4ccccc4S(C)(=O)=O)c(C#N)s3)c2cc1OC [GSK-319347A] | > 5

These molecules were tested on EW-16 (assay: cells). Settings: Homo sapiens, EW-16.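 Note: growth inhibition of human EW-16 cells, read out as cell viability.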
Assay type: functional, cell-based, Homo sapiens
Description: SANGER: Inhibition of human EW-16 cell growth in a cell viability assay.

Structure (SMILES) | IC50 [µM]
COc1cc2ncn(-c3cc(OCc4ccccc4S(C)(=O)=O)c(C#N)s3)c2cc1OC [GSK-319347A] | > 5

The molecules below were run on RCC10RGB (assay: cells). Settings: Homo sapiens, RCC10RGB.
Assay type: functional, cell-based, Homo sapiens
Description: SANGER: Inhibition of human RCC10RGB cell growth in a cell viability assay.

Structure (SMILES) | IC50 [µM]
COc1cc2ncn(-c3cc(OCc4ccccc4S(C)(=O)=O)c(C#N)s3)c2cc1OC [GSK-319347A] | > 5

Each molecule was assayed on DJM-1 (assay: cells). Settings: Homo sapiens, DJM-1.
Assay type: functional, cell-based, Homo sapiens
Description: SANGER: Inhibition of human DJM-1 cell growth in a cell viability assay.

Structure (SMILES) | IC50 [µM]
COc1cc2ncn(-c3cc(OCc4ccccc4S(C)(=O)=O)c(C#N)s3)c2cc1OC [GSK-319347A] | > 5

Each molecule was assayed on KM-H2 (assay: cells). Settings: Homo sapiens, KM-H2.
Assay type: functional, cell-based, Homo sapiens
Description: SANGER: Inhibition of human KM-H2 cell growth in a cell viability assay.

Structure (SMILES) | IC50 [µM]
COc1cc2ncn(-c3cc(OCc4ccccc4S(C)(=O)=O)c(C#N)s3)c2cc1OC [GSK-319347A] | > 5
